Molecules are shown by their SMILES.

The subject of one data set is MDA-MB-231. The data set can be described thus: Antiproliferative activity, MTT assay. It counts as cell-based, human. The following applies: Homo sapiens, MDA-MB-231; MTT, 72 h; standard deviations within 50%. Here is the method: (§1) Human breast cancer MCF7, MDA-MB-231, SkBr-3 (purchased from the ATCC collection), human keratinocytes HaCaT, murine fibroblasts L929 and macrophages J774 cells (Collection of Shemyakin-Ovchinnikov Institute of Bioorganic Chemistry RAS) were cultured in standard DMEM or RPMI-1640 medium (ThermoScientific, Waltham, MA, USA) supplemented with 10% fetal bovine serum (FBS, Cytiva, Marlborough, MA, USA) at 37 °C, 5 % CO2 and 80–85% humidity (NuAir CO2 incubator). The cell growth was evaluated by MTT (3-[4,5-dimethylthiazol-2-yl]-2,5-diphenyltetrazolium bromide) test. Cells were seeded at a density of 5 × 10^3 cells per well in 96-well flat-bottomed plates (TPP). The compounds were dissolved in DMSO (AppliChem) to 10 mM before the experiments, and then the resulting solutions were diluted by the medium to the required concentrations. Solutions of the tested compounds with different concentrations in 100 μL of the medium were added and the cells were grown for 72 h. MTT (10 μL/well, 5 mg/mL) was added for the final 3 h. The formazan purple crystals were dissolved in DMSO (100 μL per well). The absorbance of solutions was measured at 540 nm with a MultiScan reader (ThermoFisher). Results were analyzed by Excel package (Microsoft). The inhibition of proliferation (inhibitory index) was calculated as [1–(ODexperiment/ODcontrol)], where OD was MTT optical density. IC50 (Table 1) was determined as the concentration giving 50% of inhibition in the comparison with it […].
Background: Formazan colour is commonly taken as a measure of viable cells.

The test system of a further data set is MCF7. The data set is described as follows: Antiproliferative activity, MTT assay. The data set is classed as cell-based. The note with it: Homo sapiens, 72 h, standard deviations within 50%. Here is the method:
as §1

In another data set the test system is SkBr-3 cells. The data set is described as follows: Cell cycle analysis (PI-stained DNA, flow cytometry). The data set is classed as cell-based, human. Here is the method: The cell cycle was analyzed using PI-stained DNA. Cells from the compounds 7 treated cultures were collected at 24, 48, and 72 h, trypsinized, washed in ice-cold PBS, fixed by the addition of 70% ethanol and left for 2 h at −20 °C. Thereafter, the cells were washed twice in PBS, stained with 50 μg/mL of propidium iodide (Sigma, Merck KGaA, Darmstadt, Germany) in PBS, treated with 10 µg/mL of RNAse and analyzed by flow cytometry using FACScan device (BD, USA). A total of 2000 events were collected. The results were analyzed using FlowJo 10 software (BD, Franklin Lakes, NJ, USA).
(In flow cytometry, cells or beads pass a laser one at a time.)

Another data set deals with macrophages J774. The data set is described as follows: Antiproliferative activity, MTT assay. It counts as cell-based, murine. The following applies: Mus musculus, 72 h, standard deviations within 50%. Here is the method: as §1
The next data set has as its system fibroblasts L929. The data set is described as follows: Antiproliferative activity, MTT assay. The data set is classed as cell-based, murine. The note with it: Mus musculus, 72 h, standard deviations within 50%. Here is the method:
as §1

The target in data set [1] is T1, recombinant PI3K (p110α/p85α) (Homo sapiens, UniProt P42336).
T1 construct: purchased Millipore 14-602
The data set can be described thus: PI3K inhibition assay (HTRF). The data set is classed as biochemical. The following applies: FRET/HTRF detection; approximate; read-out: IC50 PI3Kα. Here is the method: The PI 3-Kinase (Class I) HTRF Assay Kit (Cat# 33-016 from Millipore) was used to determine the activity of recombinant PI3K (p110α/p85α) human (Cat# 14-602 from Millipore). The kit was supplemented with ATP (Cat# A26209 from Sigma-Aldrich, St. Louis, MI, USA), DL-dithiothreitol (Cat# S-[…]-1 from Sigma-Aldrich), and Wortmannin inhibitor (Cat# 12-338 from Millipore, Burlington, MA, USA). The latter was used at 0.1 μM concentration. For measurements, a Victor ×5 plate reader (PerkinElmer, 2030, Waltham, MA, USA) was used in TRF mode with excitation at 340 nm. Fluorescence emission was recorded at 613 and 670 nm in a 384-well plate (Cat# S-CLS3658 from Sigma-Aldrich) at a time interval of 150-350 μs. The enzymatic reaction and the determination of its products were carried out according to the recommendations of the reagent kit manufacturer (Millipore) in two wells for each sample. In calculations, readings in parallel wells were averaged. The calculations were made according to the recommendations of the equipment manufacturer.
(In general: Time-resolved FRET reads energy transfer from a long-lived donor to a nearby acceptor.)

Another data set deals with keratinocytes HaCaT. The data set is described as follows: Antiproliferative activity, MTT assay. It counts as cell-based. The following applies: Homo sapiens, 72 h, standard deviations within 50%. Here is the method: as §1
For a further data set, the system named is MCF7 breast cancer cells. Details: method as in PMID 32825760. The note with it: read-out: Concentration causing 50% suppression of MCF7 cell growth; cited from earlier work.
Data set [2] deals with PI3K/Akt/mTOR signaling pathway in MCF7 cells. The data set can be described thus: Immunoblotting of PI3K/Akt/mTOR phosphorylation. The data set is classed as cell-based, human. The following applies: 500 nM. Here is the method: MCF7 cells were seeded onto 100 mm dishes (Corning) and cultivated for 24 h. Compound 7c was added at different concentrations while the reference compound wortmannin (Selleckchem, Houston, TX, USA) was used at 500 nM. The cells were harvested after 72 h of growth with the compounds. To prepare cell extracts, MCF7 cells were twice washed in phosphate buffer and incubated for 10 min on ice in the modified lysis buffer containing 50 mM Tris-HCl, pH 7.5, 0.5% Igepal CA-630, 150 mM NaCl, 1 mM EDTA, 1 mM DTT, 1 mM PMSF, 0.1 mM sodium orthovanadate and aprotinin, leupeptin, pepstatin (1 µg/mL each). The protein content was determined by the Bradford method. Cell lysates were separated in 10% SDS-PAGE under reducing conditions, transferred to a nitrocellulose membrane (GE HealthCare, Chicago, IL, USA), and processed according to a standard protocol. To prevent nonspecific absorption, the membranes were treated with 5% nonfat milk solution in TBS buffer (20 mM Tris, 500 mM NaCl, pH 7.5) with 0.1% Tween-20 and then incubated with primary antibodies (Cell Signaling Technology, Danvers, MA, USA) overnight at 4 °C. […] Signals were detected using the ECL reagent using the ImageQuant LAS4000 system (GE HealthCare, Chicago, IL, USA).
The signals of phospho-proteins to total ones were calculated using the ImageJ program from inverted images of the bands.

T1 sequence (P42336 whole entry): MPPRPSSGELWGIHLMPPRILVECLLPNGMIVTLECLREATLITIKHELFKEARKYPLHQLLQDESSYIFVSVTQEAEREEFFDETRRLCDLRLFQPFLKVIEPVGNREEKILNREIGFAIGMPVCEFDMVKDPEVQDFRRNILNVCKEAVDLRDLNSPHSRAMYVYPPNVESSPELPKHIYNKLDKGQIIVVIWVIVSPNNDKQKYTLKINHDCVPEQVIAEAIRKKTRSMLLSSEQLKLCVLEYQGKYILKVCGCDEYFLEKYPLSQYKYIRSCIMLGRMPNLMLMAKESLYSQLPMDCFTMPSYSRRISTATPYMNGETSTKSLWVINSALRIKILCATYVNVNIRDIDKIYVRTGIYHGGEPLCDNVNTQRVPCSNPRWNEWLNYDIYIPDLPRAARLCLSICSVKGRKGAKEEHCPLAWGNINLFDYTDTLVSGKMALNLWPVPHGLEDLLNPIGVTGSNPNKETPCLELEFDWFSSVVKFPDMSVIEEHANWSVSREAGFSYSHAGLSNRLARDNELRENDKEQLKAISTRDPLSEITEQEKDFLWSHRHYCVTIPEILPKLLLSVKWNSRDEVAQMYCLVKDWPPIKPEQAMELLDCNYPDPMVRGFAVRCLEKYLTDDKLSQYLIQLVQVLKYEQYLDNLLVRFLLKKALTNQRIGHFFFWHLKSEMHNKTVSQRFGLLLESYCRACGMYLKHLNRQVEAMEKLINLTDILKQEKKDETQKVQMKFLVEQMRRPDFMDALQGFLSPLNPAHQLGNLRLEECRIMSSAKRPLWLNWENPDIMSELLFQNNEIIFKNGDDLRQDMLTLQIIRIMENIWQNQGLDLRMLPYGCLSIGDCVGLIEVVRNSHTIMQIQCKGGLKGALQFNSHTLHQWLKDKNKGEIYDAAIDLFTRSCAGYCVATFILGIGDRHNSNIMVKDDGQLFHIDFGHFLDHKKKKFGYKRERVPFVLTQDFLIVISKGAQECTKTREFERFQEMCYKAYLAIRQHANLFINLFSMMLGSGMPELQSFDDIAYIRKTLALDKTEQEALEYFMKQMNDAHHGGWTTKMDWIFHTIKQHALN
T1 sequence (P27986 whole entry partner): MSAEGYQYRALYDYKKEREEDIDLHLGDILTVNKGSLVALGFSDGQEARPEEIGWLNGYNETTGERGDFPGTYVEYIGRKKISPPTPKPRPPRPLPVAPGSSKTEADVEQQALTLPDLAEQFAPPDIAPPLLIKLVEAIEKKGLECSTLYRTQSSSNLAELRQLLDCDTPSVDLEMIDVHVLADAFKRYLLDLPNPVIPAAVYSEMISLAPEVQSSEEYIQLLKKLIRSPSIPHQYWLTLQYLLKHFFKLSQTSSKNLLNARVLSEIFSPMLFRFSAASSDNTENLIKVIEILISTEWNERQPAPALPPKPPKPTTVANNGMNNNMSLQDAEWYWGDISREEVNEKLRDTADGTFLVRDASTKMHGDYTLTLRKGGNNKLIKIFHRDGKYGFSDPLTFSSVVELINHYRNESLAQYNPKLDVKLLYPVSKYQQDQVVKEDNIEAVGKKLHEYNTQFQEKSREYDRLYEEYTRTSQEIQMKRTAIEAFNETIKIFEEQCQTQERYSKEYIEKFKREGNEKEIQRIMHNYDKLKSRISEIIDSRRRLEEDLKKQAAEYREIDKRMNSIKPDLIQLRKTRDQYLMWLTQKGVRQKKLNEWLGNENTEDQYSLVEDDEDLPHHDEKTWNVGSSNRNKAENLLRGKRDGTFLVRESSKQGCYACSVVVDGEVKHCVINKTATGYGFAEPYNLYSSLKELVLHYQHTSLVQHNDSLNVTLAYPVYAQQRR

On to `Nc1ccc(-c2ccc3c(N4CCOCC4)nc(N4CCOCC4)nc3c2)cc1` [Compound 6, 4-(2,4-Dimorpholinoquinazolin-7-yl)aniline], for which the melting point lay in the range of 191 to 193 °C.
`O=C(NCc1ccco1)Nc1ccc(-c2ccc3c(N4CCOCC4)nc(N4CCOCC4)nc3c2)cc1` [Compound 7a, 1-(4-(2,4-Dimorpholinoquinazolin-7-yl)phenyl)-3-(furan-2-ylmethyl)urea] displayed a melting point of 184 to 186 °C. For the same molecule, in the data set with MDA-MB-231, the IC50 came to 6.7 µM. The molecule also registered an IC50 in the data set with MCF7 of 6.6 µM.
On to `COc1ccc(CNC(=O)Nc2ccc(-c3ccc4c(N5CCOCC5)nc(N5CCOCC5)nc4c3)cc2)cc1` [Compound 7b, 1-(4-(2,4-Dimorpholinoquinazolin-7-yl)phenyl)-3-(4-methoxybenzyl)urea], for which, in the data set with SkBr-3 cells, the “Concentration above which all cells died” value is on record as “higher than 10 μM”. Moreover, the “Concentration below which no changes in the cell cycle were found” value in the data set with SkBr-3 cells was “below 1 μM”. In addition, the IC50 was 1.7 µM in the data set with MDA-MB-231; 1.6 µM in the data set on macrophages J774; 12 µM in the data set with fibroblasts L929; about 50 µM in [1]; 0.8 µM with keratinocytes HaCaT; 1.1 µM in the data set with MCF7.
In turn, `O=C(Nc1ccc(-c2ccc3c(N4CCOCC4)nc(N4CCOCC4)nc3c2)cc1)NC1CC1` [Compound 7d, 1-Cyclopropyl-3-(4-(2,4-dimorpholinoquinazolin-7-yl)phenyl)urea] showed a melting point of 83 to 85 °C. Further, the IC50 with MDA-MB-231 amounted to 10.5 µM. In the data set with MCF7, this molecule came in with an IC50 of 5.2 µM.
`N[C@@H](CCCCNC(=O)Nc1ccc(-c2ccc3c(N4CCOCC4)nc(N4CCOCC4)nc3c2)cc1)C(=O)O` [Compound 7e, N6-((4-(2,4-Dimorpholinoquinazolin-7-yl)phenyl)carbamoyl)lysine] registered a melting point of 89 to 91 °C. For the same molecule, the IC50 in the data set with MDA-MB-231 came out at 24 µM. The molecule further had an IC50 in the data set with macrophages J774 of 12 µM. For the same molecule, the IC50 in the data set with fibroblasts L929 is 12 µM. The same molecule had an IC50 in the data set with keratinocytes HaCaT of 12 µM. Also, the IC50 in the data set with MCF7 worked out at 9.5 µM.
As for `O=C(Nc1ccc(-c2ccc3c(N4CCOCC4)nc(N4CCOCC4)nc3c2)cc1)Nc1ccc([N+](=O)[O-])cc1` [Compound 7f, 1-(4-(2,4-Dimorpholinoquinazolin-7-yl)phenyl)-3-(4-nitrophenyl)urea], the melting point fell in the range of 240 to 242 °C. The molecule further displayed an IC50 in the data set with MDA-MB-231 of 8.8 µM. Moreover, the IC50 in the data set with macrophages J774 came to 6 µM. Moreover, the IC50 in the data set on fibroblasts L929 turned out to be 12 µM. In the data set with keratinocytes HaCaT, this molecule gave an IC50 of 3 µM. In the data set on MCF7, this molecule showed an IC50 of 6.5 µM.
As for `O=C(Nc1ccc(F)cc1)Nc1ccc(-c2ccc3c(N4CCOCC4)nc(N4CCOCC4)nc3c2)cc1` [Compound 7g, 1-(4-(2,4-Dimorpholinoquinazolin-7-yl)phenyl)-3-(4-fluorophenyl)urea], the IC50 in the data set on MDA-MB-231 came to 14 µM; in the data set with macrophages J774, 6 µM; with fibroblasts L929, 25 µM; in the data set with keratinocytes HaCaT it was 25 µM; in the data set on MCF7 it was 4.9 µM.
`O=C(Nc1ccc(-c2ccc3c(N4CCOCC4)nc(N4CCOCC4)nc3c2)cc1)Nc1ccccn1` [Compound 7h, 1-(4-(2,4-Dimorpholinoquinazolin-7-yl)phenyl)-3-(pyridin-2-yl)urea] registered a melting point of 210 to 212 °C. In the data set with MDA-MB-231, this molecule showed an IC50 of 14 µM. In addition, the IC50 in the data set with macrophages J774 came out at 6 µM. Also, the IC50 with fibroblasts L929 was 12 µM. Also, the IC50 with keratinocytes HaCaT turned out to be 3 µM. The same molecule showed an IC50 with MCF7 of 13 µM.
On to `O=C(Nc1ccc(-c2ccc3c(N4CCOCC4)nc(N4CCOCC4)nc3c2)cc1)Nc1cccc2ccccc12` [Compound 7i, 1-(4-(2,4-Dimorpholinoquinazolin-7-yl)phenyl)-3-(naphthalen-1-yl)urea], for which the melting point fell in the range of 228 to 230 °C. For the same molecule, in the data set with MDA-MB-231, the IC50 is 11 µM. The molecule further registered an IC50 in the data set with macrophages J774 of 6 µM. In the data set with fibroblasts L929, this molecule registered an IC50 of 6 µM. In the data set with keratinocytes HaCaT, this molecule showed an IC50 of 6 µM. For the same molecule, the IC50 in the data set on MCF7 was 6.1 µM.
On to `COC(=O)c1ccc(NC(=O)Nc2ccc(-c3ccc4c(N5CCOCC5)nc(N5CCOCC5)nc4c3)cc2)cc1` [Compound 7j, Methyl 4-(3-(4-(2,4-Dimorpholinoquinazolin-7-yl)phenyl)ureido)benzoate], for which, in the data set with SkBr-3 cells, the “Concentration above which all cells died” value was “higher than 10 μM”. For the same molecule, the “Concentration below which no changes in the cell cycle were found” value with SkBr-3 cells is on record as “below 1 μM”. Also, the IC50 with MDA-MB-231 worked out at 4.1 µM; with macrophages J774, 0.8 µM; in the data set with fibroblasts L929 it was 3 µM; in the data set with keratinocytes HaCaT, 3 µM; in the data set with MCF7, 3.8 µM.
`CCOC(=O)N1CCN(C(=O)Nc2ccc(-c3ccc4c(N5CCOCC5)nc(N5CCOCC5)nc4c3)cc2)CC1` [Compound 7k, Ethyl 4-((4-(2,4-Dimorpholinoquinazolin-7-yl)phenyl)carbamoyl)piperazine-1-carboxylate] had a melting point of 109 to 111 °C. Moreover, the IC50 in the data set on MDA-MB-231 was found to be 17 µM. For the same molecule, in the data set with macrophages J774, the IC50 worked out at 3 µM. Besides, the IC50 with fibroblasts L929 turned out to be 25 µM. Besides, in the data set with keratinocytes HaCaT, the IC50 stood at 6 µM. In the data set on MCF7, the IC50 amounted to 11 µM.
The molecule `C#CCNC(=O)Nc1ccc(-c2ccc3c(N4CCOCC4)nc(N4CCOCC4)nc3c2)cc1` [Compound 7l, 1-(4-(2,4-Dimorpholinoquinazolin-7-yl)phenyl)-3-(prop-2-yn-1-yl)urea] had a melting point of 168 to 170 °C. In the data set on MDA-MB-231, this molecule gave an IC50 of over 50 µM. This molecule gave an IC50 in the data set with macrophages J774 of 6 µM. In addition, the IC50 in the data set with fibroblasts L929 is over 50 µM. In the data set on keratinocytes HaCaT, this molecule yielded an IC50 of 3 µM. Also, the IC50 in the data set on MCF7 is over 50 µM.
Take `CN(C)C(=N)N=C(N)N` [MF, metformin]: in the data set on MCF7 breast cancer cells, the IC50 was 5800 µM.
Take `COC[C@H]1OC(=O)c2coc3c2[C@@]1(C)C1=C(C3=O)[C@@H]2CCC(=O)[C@@]2(C)C[C@H]1OC(C)=O` [wortmannin, reference compound]: the “Effect on PI3K/Akt/mTOR signaling pathway” value in [2] is reported as “neither affects PI3K/Akt/mTOR signaling pathway even at 500 nM”.

The term melting point denotes the temperature, or range, at which the solid turns liquid.

The record behind these values is publication PMC9503112, “Synthesis, Molecular Docking, In Vitro and In Vivo Studies of Novel Dimorpholinoquinazoline-Based Potential Inhibitors of PI3K/Akt/mTOR Pathway” (International Journal of Molecular Sciences, 2022).
